Test results reported in patent US4810779A, “Decapeptides having hypotensive action and process for their preparation” (Enichem Elastomeri S.p.A., priority 1985, dated 1989).
Like-named read-outs stand apart in the source and are kept apart here. Where a SMILES comes first, the peptide text is derived from it. [ ]: non-standard residue; d: D form. pGlu = O=C1CC[C@@H](C(=O)O)N1; Orn = NCCC[C@H](N)C(=O)O

Experiments:
arterial pressure [1] = conditions: injected into the femoral vein of rats; cited from earlier work
arterial pressure [2] = experiment: Effect of the decapeptides on arterial pressure (injection into femoral vein of anaesthetized rats); assay type: in vivo, C.D. male rats; conditions: for Duration of hypotensive effect / Pressure Difference Maximum / Pressure Difference Minimum / hypotensive effect (in words): femoral vein; for Duration of hypotensive effect / Pressure Difference Maximum / Pressure Difference Minimum: anaesthetized rats
Method: (§1) The activity of the decapeptides of the present invention has been determined in vivo on C.D. male rats available from Charles-River Co., anesthetized by ethyl urethane.
(§2) The effect on the arterial pressure and on bradykinin potentating has been studied by injecting into femoral vein a decapeptide (I) in an amount of from 0.3 to 0.2 mg/kg of body weight.
Five C.D. male rats available from Charles River Co., of weight of 200-300 g, anaesthetized by ethyl urethane (1.75 g/kg by intraperitoneal way) are used.
After tracheal cannulating, the right-hand carotid artery is isolated and connected by cannula to a Hewlett-Packard Model 1280 pressure transducer.
From isolated left-hand carotid the arterial flow is recorded by means of Biotronex® electromagnetic flowmeter, and pressure variation wiith the (dp/dt), electrocardiogram (ECG) and the beats per minute (BPM) are recorded on Hewlett Packard Polygraph.
The decapeptides of the present invention have been tested by being injected into right-hand femoral vein at the dose of 0.3-0.2 mg/kg of body weight, and compared to the decapeptide (II) of the prior art.

bradykinin = experiment: Effect of decapeptides as bradykinin potentiators (injection into femoral vein soon before bradykinin); assay type: in vivo, Male C.D. rats; conditions: for Duration of hypotensive effect (t) / Pressure Difference Maximum / Pressure Difference Minimum: bradykinin potentiation, femoral vein soon before bradykinin; for potentiation of the hypotensive effect / activity of bradykinin (in words): in vivo, male rats
Method: as §1, §2
Male C.D. rats of Charles-River race are treated as described in Example 8, and submitted to test by bradykinin.
Bradykinin is a physiologic peptide which, when injected into femoral vein, causes a fast but not long-lasting hypotensive effect, because it is rapidly degraded at pulmonary circulation level by the Angiotensin Conversion Enzyme (ACE).
The peptides of the present invention are tested by being injected into the right-hand femoral vein soon before bradykinin, and comparing them to the decapeptide of the prior art.

arterial pressure [3] = conditions: cited from earlier work

Row | SMILES | lowering in arterial pressure (arterial pressure [1]) | potentiation of the activity of bradykinin (arterial pressure [1]) | Duration of hypotensive effect (arterial pressure [2]; 0.3 mg/kg) | Pressure Difference Maximum (arterial pressure [2]; 0.3 mg/kg) | Pressure Difference Minimum (arterial pressure [2]; 0.3 mg/kg) | Duration of hypotensive effect (t) (bradykinin; 0.3 mg/kg) | Pressure Difference Maximum (bradykinin; 0.3 mg/kg) | Pressure Difference Minimum (bradykinin; 0.3 mg/kg) | eurhythmizing effect (arterial pressure [2]; in vivo, male rats) | hypotensive effect (in words) (arterial pressure [2]; in vivo, male rats) | potentiation of the hypotensive effect / activity of bradykinin (in words) (bradykinin) | Duration of hypotensive effect (arterial pressure [2]; 0.2 mg/kg) | Pressure Difference Maximum (arterial pressure [2]; 0.2 mg/kg) | Pressure Difference Minimum (arterial pressure [2]; 0.2 mg/kg) | Duration of hypotensive effect (t) (bradykinin; 0.2 mg/kg) | Pressure Difference Maximum (bradykinin; 0.2 mg/kg) | Pressure Difference Minimum (bradykinin; 0.2 mg/kg) | antihypertensive action (arterial pressure [3]; administered orally) | antihypertensive action (arterial pressure [3]; intravenous administration)
1 | CC[C@H](C)[C@H](NC(=O)[C@H](CCC(N)=O)NC(=O)[C@@H]1CCCN1C(=O)[C@H](CCCNC(=N)N)NC(=O)[C@@H]1CCCN1C(=O)[C@H](Cc1c[nH]c2ccccc12)NC(=O)[C@H](CC(C)C)NC(=O)[C@@H]1CCC(=O)N1)C(=O)N1CCC[C@H]1C(=O)N1CCC[C@H]1C(=O)O [Decapeptide II, Glp-Leu-Trp-Pro-Arg-Pro-Gln-Ile-Pro-Pro-OH, reference compound] ([pGlu]LWPRPQIPP-OH) | causes a lowering in arterial pressure | potentiates the activity of bradykinin, prolonging the hypotensive effect thereof | 10 min | 15 mmHg | 15 mmHg | 10 min | 15 mmHg | 15 mmHg | – | – | – | – | – | – | – | – | – | – | –
2 | CC[C@H](C)[C@H](NC(=O)[C@H](CCC(N)=O)NC(=O)[C@@H]1CCCN1C(=O)[C@H](CCCN)NC(=O)[C@@H]1CCCN1C(=O)[C@H](Cc1c[nH]c2ccccc12)NC(=O)[C@H](CC(C)C)NC(=O)[C@@H]1CCC(=O)N1)C(=O)N1CCC[C@H]1C(=O)N1CCC[C@H]1C(=O)O [Decapeptide III, Glp-Leu-Trp-Pro-Orn-Pro-Gln-Ile-Pro-Pro-OH] ([pGlu]LWP[Orn]PQIPP-OH) | – | – | > 10 min | 20 mmHg | 25 mmHg | 90 min | 15 mmHg | 15 mmHg | shows an eurhythmizing effect | stronger and more long-lasting hypotensive effect than decapeptide (II) | potentiates the hypotensive effect of bradykinin | – | – | – | – | – | – | – | –
3 | CC(C)C[C@H](NC(=O)[C@@H]1CCC(=O)N1)C(=O)N[C@@H](Cc1c[nH]c2ccccc12)C(=O)N1CCC[C@H]1C(=O)N[C@@H](CCCN)C(=O)N1CCC[C@H]1C(=O)N[C@@H](Cc1c[nH]cn1)C(=O)N[C@H](C(=O)N1CCC[C@H]1C(=O)N1CCC[C@H]1C(=O)O)C(C)C [Decapeptide IV, Glp-Leu-Trp-Pro-Orn-Pro-His-Val-Pro-Pro-OH] ([pGlu]LWP[Orn]PHVPP-OH) | – | – | – | – | – | – | – | – | – | cause in vivo a hypotensive effect | potentiate the activity of bradykinin | < 10 min | 20 mmHg | 25 mmHg | 45 min | 25 mmHg | 30 mmHg | – | –
4 | CC(C)C[C@H](NC(=O)[C@@H]1CCC(=O)N1)C(=O)N[C@@H](Cc1c[nH]c2ccccc12)C(=O)N1CCC[C@H]1C(=O)N[C@@H](CCCNC(=N)N)C(=O)N1CCC[C@H]1C(=O)N[C@@H](Cc1c[nH]cn1)C(=O)N[C@H](C(=O)N1CCC[C@H]1C(=O)N1CCC[C@H]1C(=O)O)C(C)C [Decapeptide V, Glp-Leu-Trp-Pro-Arg-Pro-His-Val-Pro-Pro-OH] ([pGlu]LWPRPHVPP-OH) | – | – | – | – | – | – | – | – | – | cause in vivo a hypotensive effect | potentiate the activity of bradykinin | < 10 min | 15 mmHg | 15 mmHg | 30 min | 15 mmHg | 30 mmHg | – | –
5 | CC[C@H](C)[C@H](NC(=O)[C@H](CCC(N)=O)NC(=O)[C@@H]1CCCN1C(=O)[C@H](CCCNC(=N)N)NC(=O)[C@@H]1CCCN1C(=O)[C@H](Cc1c[nH]c2ccccc12)NC(=O)[C@@H]1CCC(=O)N1)C(=O)N1CCC[C@H]1C(=O)N1CCC[C@H]1C(=O)O [Teprotide] | – | – | – | – | – | – | – | – | – | – | – | – | – | – | – | – | – | inactive when administered orally | powerful antihypertensive agent
